How the values were obtained:
Format in all cases: biochemical
Plk1(h) = target: T1, Plk1(h) (Homo sapiens, UniProt P53350); experiment: kinase profile, radiometric assay, Plk1
T1 construct: purchased Eurofins, Dundee, Scotland
Description: (§1) Enzymatic biochemical activities were evaluated in radiometric protein kinase assays (Eurofins, Dundee, Scotland). Kinases are incubated with buffer, substrate and [γ-^33P]-ATP (specific activity approx. 500 cpm/pmol, concentration as required). The reaction is initiated by the addition of the MgATP mix. After incubation for 40 minutes at room temperature, the reaction is stopped by the addition of 3% phosphoric acid solution. 10 μL of the reaction is then spotted onto a P30 filtermat and washed three times for 5 minutes in 75 mM phosphoric acid and once in methanol prior to drying and scintillation counting.
(§2) All compounds are prepared to 50× final assay concentration in 100% DMSO. Positive control wells contain all components of the reaction with 2% DMSO. Blank wells contain all components of the reaction, with a reference inhibitor replacing the compound of interest. Each kinase is assigned a standard assay concentration of ATP within 20 μM of its apparent KM. Compounds were screened at 1 μM in duplicate or tested at 10 concentrations at half log dilution starting from 10 μM in singlicate. Dose response curves were fitted with four parameter logistic curve to obtain IC50 values. The average coefficient of variation (CV) of the conducted assay is 4.4%.

IKKβ(h) = target: T2, IKKβ(h) (Homo sapiens, UniProt O14920); experiment: kinase profile, radiometric assay, IKKβ
T2 construct: purchased Eurofins, Dundee, Scotland
T2 sequence (O14920 1-756): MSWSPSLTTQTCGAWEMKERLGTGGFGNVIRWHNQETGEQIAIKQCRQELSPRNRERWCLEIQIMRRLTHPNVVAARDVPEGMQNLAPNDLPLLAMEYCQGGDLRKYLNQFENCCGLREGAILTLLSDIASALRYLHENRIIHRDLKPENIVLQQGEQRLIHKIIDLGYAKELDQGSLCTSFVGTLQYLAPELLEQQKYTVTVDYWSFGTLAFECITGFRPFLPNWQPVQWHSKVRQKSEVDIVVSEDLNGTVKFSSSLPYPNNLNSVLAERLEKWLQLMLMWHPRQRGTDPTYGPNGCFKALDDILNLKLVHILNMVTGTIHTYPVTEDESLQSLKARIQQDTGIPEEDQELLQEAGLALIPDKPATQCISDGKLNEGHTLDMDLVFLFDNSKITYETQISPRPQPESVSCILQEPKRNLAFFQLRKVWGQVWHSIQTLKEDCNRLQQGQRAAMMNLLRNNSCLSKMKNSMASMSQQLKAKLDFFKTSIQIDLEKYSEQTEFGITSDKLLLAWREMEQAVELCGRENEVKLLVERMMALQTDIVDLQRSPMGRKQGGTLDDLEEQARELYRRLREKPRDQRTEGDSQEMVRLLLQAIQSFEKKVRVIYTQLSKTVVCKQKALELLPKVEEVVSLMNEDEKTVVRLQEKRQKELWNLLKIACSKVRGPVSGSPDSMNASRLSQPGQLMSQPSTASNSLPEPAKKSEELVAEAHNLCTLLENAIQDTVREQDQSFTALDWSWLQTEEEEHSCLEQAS
Description: as §1, §2

EGFR(h) = target: T3, EGFR(h) (Homo sapiens, UniProt P00533); experiment: kinase profile, radiometric assay, EGFR
T3 construct: purchased Eurofins, Dundee, Scotland
T3 sequence (P00533 25-1210): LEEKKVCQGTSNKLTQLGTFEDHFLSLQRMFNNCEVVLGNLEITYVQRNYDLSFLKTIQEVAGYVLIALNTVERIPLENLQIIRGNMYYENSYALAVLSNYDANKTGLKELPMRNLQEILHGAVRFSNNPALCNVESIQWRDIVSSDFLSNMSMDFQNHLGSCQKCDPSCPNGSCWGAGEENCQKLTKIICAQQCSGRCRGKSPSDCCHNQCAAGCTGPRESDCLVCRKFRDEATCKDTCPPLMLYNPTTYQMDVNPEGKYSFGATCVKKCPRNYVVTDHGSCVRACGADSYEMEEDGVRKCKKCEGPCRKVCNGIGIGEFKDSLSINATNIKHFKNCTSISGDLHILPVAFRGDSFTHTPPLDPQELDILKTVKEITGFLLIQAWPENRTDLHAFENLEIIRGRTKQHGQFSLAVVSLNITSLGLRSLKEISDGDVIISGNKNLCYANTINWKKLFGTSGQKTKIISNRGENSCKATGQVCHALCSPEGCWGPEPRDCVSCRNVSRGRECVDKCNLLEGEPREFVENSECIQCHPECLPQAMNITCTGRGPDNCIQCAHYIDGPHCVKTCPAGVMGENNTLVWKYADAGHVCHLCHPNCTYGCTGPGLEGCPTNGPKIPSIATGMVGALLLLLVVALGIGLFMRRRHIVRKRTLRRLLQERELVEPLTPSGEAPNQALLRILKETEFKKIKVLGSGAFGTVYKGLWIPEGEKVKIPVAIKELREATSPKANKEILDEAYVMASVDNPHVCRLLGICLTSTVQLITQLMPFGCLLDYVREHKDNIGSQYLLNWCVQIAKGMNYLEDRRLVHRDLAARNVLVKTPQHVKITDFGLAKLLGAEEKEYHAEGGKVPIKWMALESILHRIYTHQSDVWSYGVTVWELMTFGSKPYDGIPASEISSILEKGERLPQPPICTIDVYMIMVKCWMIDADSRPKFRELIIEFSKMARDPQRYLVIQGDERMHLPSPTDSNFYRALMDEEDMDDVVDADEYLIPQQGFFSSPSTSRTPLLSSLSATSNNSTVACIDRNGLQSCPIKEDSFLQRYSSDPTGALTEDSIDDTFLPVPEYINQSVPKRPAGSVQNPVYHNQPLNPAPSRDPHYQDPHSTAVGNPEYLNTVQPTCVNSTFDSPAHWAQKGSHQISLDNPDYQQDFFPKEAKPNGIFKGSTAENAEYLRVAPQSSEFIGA
Description: as §1, §2

Abl(h) = target: T4, Abl(h) (Homo sapiens, UniProt P00519); experiment: kinase profile, radiometric assay, Abl
T4 construct: purchased Eurofins, Dundee, Scotland
T4 sequence (P00519 whole entry): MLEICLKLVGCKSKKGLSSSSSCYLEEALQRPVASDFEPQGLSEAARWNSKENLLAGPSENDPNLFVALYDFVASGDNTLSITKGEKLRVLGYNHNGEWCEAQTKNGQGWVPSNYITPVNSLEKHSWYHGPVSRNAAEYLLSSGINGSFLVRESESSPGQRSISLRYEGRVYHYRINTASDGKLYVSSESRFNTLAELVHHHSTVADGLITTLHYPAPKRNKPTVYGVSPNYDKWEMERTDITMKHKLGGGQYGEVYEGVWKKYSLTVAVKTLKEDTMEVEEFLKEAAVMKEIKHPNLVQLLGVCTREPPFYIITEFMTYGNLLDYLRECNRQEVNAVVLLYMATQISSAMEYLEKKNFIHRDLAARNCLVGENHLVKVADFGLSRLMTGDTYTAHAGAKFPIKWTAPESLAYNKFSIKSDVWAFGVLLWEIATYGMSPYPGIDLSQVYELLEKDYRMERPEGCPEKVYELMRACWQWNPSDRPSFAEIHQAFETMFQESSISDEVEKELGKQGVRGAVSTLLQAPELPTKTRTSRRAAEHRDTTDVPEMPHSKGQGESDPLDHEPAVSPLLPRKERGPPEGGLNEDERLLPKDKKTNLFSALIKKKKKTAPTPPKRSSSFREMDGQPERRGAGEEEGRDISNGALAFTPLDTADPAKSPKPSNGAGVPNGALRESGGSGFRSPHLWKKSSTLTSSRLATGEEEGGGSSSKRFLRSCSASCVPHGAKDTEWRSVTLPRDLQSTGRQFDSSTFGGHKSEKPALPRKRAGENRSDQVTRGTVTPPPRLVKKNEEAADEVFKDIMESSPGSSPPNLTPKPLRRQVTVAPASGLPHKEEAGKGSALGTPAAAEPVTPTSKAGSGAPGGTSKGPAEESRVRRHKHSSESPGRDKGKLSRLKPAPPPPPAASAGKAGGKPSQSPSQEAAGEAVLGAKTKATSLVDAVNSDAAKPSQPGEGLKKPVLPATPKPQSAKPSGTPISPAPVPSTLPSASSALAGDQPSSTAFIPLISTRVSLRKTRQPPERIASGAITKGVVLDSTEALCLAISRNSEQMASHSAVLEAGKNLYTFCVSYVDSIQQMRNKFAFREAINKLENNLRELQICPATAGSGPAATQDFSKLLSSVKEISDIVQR
Description: as §1, §2

KDR(h) = target: T5, KDR(h) (Homo sapiens, UniProt P35968); experiment: kinase profile, radiometric assay, KDR
T5 construct: purchased Eurofins, Dundee, Scotland
T5 sequence (P35968 20-1356): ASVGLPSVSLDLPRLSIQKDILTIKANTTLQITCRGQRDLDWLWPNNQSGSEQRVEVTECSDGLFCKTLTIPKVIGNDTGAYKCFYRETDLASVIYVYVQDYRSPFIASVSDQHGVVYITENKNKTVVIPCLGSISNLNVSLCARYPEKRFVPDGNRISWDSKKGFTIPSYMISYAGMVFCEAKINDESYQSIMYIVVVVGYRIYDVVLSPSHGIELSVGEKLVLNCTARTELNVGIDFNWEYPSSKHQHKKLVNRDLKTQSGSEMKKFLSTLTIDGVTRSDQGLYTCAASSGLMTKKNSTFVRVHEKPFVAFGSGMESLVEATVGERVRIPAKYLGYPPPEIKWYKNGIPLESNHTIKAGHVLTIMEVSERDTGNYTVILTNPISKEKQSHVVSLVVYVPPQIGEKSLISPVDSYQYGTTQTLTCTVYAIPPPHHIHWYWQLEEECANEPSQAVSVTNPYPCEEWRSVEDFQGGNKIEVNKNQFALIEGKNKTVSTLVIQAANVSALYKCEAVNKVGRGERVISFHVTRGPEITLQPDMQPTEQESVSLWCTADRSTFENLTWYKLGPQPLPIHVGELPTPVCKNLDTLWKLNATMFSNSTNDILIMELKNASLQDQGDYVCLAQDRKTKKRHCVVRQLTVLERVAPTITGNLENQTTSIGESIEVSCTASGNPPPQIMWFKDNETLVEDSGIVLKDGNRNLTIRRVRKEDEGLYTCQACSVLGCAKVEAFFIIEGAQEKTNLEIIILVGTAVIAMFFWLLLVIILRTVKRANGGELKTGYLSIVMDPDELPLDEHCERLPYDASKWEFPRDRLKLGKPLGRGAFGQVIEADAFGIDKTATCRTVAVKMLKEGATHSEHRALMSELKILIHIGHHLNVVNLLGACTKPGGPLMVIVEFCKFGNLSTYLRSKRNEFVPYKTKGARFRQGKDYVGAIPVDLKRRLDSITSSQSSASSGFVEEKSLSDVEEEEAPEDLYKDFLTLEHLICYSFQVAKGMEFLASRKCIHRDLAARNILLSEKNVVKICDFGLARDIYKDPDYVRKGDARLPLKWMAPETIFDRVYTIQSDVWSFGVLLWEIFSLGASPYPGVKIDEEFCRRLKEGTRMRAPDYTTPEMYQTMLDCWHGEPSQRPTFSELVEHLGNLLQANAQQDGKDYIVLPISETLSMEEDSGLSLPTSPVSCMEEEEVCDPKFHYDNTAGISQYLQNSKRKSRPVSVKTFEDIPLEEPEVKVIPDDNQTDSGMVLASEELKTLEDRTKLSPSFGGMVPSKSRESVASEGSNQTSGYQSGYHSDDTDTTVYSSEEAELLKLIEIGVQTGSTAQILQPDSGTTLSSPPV
Description: as §1, §2

CLK1(h) = target: T6, CLK1(h) (Homo sapiens, UniProt P49759); experiment: radiometric protein kinase assay, CLK1; conditions: enzyme inhibition, radiometric, ATP 10 μM; read-out: IC50 (nM) CLK1
T6 construct: purchased Eurofins, Dundee, Scotland
T6 sequence (P49759 whole entry): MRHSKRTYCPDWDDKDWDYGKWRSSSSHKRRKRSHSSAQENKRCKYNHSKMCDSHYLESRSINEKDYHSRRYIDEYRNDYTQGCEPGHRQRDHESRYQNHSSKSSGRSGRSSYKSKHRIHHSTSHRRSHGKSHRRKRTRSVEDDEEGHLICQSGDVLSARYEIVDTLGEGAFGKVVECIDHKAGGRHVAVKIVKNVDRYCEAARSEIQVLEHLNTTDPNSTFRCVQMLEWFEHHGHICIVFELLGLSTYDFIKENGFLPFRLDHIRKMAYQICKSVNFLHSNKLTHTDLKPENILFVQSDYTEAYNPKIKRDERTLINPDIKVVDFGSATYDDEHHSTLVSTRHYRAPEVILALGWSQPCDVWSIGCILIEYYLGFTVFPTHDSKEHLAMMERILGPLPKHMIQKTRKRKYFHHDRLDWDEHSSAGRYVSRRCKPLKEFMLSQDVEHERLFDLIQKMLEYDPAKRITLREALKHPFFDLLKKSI
Description: as §1, §2

Flt3(h) = target: T7, Flt3(h) (Homo sapiens, UniProt P36888); experiment: kinase profile, radiometric assay, Flt3
T7 construct: purchased Eurofins, Dundee, Scotland
T7 sequence (P36888 27-993): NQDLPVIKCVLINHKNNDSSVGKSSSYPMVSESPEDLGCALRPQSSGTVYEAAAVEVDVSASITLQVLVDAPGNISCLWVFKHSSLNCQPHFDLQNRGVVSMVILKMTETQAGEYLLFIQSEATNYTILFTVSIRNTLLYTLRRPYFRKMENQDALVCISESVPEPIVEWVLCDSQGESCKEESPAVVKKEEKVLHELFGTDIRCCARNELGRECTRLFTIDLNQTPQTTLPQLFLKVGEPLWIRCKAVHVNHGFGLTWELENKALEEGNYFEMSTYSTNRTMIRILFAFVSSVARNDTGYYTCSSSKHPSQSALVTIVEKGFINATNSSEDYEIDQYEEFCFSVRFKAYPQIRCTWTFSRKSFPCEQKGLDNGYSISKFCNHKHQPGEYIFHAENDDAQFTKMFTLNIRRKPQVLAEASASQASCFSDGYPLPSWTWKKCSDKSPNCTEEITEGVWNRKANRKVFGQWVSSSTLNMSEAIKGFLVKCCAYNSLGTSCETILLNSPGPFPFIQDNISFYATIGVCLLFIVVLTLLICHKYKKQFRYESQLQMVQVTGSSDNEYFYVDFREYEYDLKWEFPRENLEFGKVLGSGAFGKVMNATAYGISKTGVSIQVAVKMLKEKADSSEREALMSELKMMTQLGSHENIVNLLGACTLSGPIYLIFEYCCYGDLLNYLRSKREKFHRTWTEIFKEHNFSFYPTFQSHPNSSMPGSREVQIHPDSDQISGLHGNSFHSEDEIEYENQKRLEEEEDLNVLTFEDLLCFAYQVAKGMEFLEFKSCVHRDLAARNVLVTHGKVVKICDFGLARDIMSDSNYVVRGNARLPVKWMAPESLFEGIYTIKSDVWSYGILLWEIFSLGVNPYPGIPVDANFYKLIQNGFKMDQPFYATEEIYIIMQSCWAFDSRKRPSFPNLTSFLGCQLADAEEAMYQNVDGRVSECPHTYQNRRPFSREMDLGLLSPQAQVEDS
Description: as §1, §2

T1 sequence (P53350 whole entry): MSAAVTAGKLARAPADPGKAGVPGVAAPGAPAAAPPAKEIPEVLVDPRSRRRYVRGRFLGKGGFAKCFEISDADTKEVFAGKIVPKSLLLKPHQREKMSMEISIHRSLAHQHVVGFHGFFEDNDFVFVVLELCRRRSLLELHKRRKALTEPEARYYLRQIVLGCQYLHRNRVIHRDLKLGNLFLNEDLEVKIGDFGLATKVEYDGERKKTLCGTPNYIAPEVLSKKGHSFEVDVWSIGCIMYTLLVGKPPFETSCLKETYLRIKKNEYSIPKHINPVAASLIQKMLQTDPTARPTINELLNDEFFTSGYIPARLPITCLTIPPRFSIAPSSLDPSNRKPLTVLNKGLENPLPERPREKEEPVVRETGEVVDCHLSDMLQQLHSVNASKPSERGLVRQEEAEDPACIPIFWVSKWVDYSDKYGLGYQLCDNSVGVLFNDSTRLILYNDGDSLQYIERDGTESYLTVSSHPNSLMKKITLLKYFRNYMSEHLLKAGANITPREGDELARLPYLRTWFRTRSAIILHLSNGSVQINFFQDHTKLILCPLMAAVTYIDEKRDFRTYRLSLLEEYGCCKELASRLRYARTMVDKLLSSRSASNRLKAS

Row | SMILES | inhibition at 1 µM (Plk1(h)) [%] | inhibition at 1 µM (IKKβ(h)) [%] | inhibition at 1 µM (EGFR(h)) [%] | inhibition at 1 µM (Abl(h)) [%] | inhibition at 1 µM (KDR(h)) [%] | IC50 (CLK1(h)) [nM] | inhibition at 1 µM (Flt3(h)) [%]
1 | CC(C)n1cnc2c(Nc3cccc(Cl)c3)nc(N[C@@H]3CCCC[C@@H]3N)nc21 [Compound 9, N^2-((1R,2S)-2-Aminocyclohexyl)-N^6-(3-Chlorophenyl)-9-Isopropyl-9H-Purine-2,6-Diamine] | 9 | -5 | 3 | 2 | -6 | 38 | 90
2 | CC(C)n1cnc2c(Nc3cc(N)cc(Cl)c3)nc(NC3CCCCC3N)nc21 (racemic) [Compound 14, Racemic N^6-Cis-(3-Amino-5-Chlorophenyl)-N^2-(2-Aminocyclohexyl)-9-Isopropyl-9H-Purine-2,6-Diamine] | 60 | -9 | -1 | 8 | 4 | 18 | 93
3 | CC(C)n1cnc2c(Nc3cccc(Cl)c3)nc(N[C@H]3CCCC[C@@H]3N)nc21 [Compound 8, N^2-((1S,2S)-2-Aminocyclohexyl)-V-(3-Chlorophenyl)-9-Isopropyl-9H-Purine-2,6-Diamine] | 49 | -2 | -6 | -2 | 16 | 78 | 19

Source: patent US10722515B2, “Dual CLK/CDK1 inhibitors for cancer treatment” (SRI INTERNATIONAL, priority 2016, dated 2020)
